The text below walks through data of ChEMBL document CHEMBL1773004, “1-[(1-methyl-1H-imidazol-2-yl)methyl]-4-phenylpiperidines as mGluR2 positive allosteric modulators for the treatment of psychosis” (J Med Chem, 2011).

The structures appear in SMILES notation. Calls of active or inactive are those of the source. The rule behind the calls is not given here.

Data set [1] has as its target D(2) dopamine receptor (Homo sapiens, UniProt P14416). Nature of the data set: Antagonist activity at human dopamine D2 receptor expressed in CHO cells assessed as inhibition of quinpirole-induced effect. The format is functional, cell-based.
Data set [2] deals with Metabotropic glutamate receptor 1 (Homo sapiens) (UniProt Q13255). The data set can be described thus: Agonist activity at mGlu1 receptor at up to 10 uM. The format is functional.
Metabotropic glutamate receptor 1 (Homo sapiens), sequence (Q13255 19-1194 limits assumed): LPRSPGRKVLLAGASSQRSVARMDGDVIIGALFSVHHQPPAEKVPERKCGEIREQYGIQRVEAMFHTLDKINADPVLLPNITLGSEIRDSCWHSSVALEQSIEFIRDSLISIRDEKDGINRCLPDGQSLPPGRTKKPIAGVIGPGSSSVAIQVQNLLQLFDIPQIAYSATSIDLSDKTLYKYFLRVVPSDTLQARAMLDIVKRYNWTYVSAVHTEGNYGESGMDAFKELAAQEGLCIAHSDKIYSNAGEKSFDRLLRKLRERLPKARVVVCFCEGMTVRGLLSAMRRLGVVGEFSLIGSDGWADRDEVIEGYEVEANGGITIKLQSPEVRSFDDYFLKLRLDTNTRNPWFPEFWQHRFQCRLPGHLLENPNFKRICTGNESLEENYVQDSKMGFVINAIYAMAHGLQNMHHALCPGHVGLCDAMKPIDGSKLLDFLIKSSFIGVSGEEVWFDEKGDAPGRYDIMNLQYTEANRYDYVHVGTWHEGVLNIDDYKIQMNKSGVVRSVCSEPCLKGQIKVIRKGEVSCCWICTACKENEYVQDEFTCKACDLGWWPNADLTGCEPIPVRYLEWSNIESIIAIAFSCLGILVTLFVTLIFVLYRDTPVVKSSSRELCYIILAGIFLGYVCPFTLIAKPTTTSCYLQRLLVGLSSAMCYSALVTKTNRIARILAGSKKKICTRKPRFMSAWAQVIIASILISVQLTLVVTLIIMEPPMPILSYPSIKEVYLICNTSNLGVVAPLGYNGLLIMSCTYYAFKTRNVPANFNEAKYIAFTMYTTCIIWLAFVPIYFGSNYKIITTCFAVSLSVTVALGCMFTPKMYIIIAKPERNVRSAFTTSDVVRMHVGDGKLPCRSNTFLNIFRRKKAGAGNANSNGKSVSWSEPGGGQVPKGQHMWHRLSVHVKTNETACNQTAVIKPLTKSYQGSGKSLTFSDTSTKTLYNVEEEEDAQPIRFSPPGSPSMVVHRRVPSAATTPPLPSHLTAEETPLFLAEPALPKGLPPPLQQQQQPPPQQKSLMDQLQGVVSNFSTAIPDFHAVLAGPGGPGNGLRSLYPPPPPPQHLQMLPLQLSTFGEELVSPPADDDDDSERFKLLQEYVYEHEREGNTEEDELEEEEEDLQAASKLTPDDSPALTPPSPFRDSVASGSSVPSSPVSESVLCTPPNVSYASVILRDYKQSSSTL
Data set [3] concerns the target Metabotropic glutamate receptor 5 (Homo sapiens) (UniProt P41594). The data set can be described thus: Agonist activity at mGlu5 receptor at up to 10 uM. It is filed as functional.
The target of data set [4] is hERG (KCNH2) (Homo sapiens, UniProt Q12809). Nature of the data set: Binding affinity to human ERG at 3.16 uM.
The target in data set [5] is Histamine H1 receptor (Homo sapiens) (UniProt P35367). The data set can be described thus: Binding affinity to histamine H1 receptor at 3.16 uM.
Histamine H1 receptor (Homo sapiens), sequence (P35367 whole entry): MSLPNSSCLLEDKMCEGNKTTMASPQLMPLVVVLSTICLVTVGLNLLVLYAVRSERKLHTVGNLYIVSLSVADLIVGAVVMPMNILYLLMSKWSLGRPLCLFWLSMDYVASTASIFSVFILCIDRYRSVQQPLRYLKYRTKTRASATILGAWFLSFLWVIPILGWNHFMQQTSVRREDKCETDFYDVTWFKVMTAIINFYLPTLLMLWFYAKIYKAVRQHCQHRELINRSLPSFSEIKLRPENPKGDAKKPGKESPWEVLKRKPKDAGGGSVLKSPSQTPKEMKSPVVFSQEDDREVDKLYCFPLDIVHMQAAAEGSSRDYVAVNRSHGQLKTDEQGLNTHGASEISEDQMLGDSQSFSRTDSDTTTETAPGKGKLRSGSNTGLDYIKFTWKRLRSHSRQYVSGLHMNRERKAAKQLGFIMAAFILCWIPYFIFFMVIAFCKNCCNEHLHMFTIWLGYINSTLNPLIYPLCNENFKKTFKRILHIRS
Data set [6] has as its target T1, Muscarinic acetylcholine receptor M1 (Homo sapiens) (UniProt P11229).
T1 sequence (whole entry): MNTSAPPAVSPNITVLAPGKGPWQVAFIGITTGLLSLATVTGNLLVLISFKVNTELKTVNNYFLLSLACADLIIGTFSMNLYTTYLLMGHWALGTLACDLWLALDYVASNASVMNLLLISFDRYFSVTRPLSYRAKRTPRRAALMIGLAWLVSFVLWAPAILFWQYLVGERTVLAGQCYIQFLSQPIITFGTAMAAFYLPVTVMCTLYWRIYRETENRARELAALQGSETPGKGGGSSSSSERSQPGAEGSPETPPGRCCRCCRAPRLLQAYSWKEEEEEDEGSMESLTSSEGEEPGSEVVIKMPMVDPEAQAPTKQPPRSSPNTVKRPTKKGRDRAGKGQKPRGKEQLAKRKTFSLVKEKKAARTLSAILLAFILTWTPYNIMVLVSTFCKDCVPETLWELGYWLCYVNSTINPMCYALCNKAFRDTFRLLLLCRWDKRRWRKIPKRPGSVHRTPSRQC
Nature of the data set: Binding affinity to muscarinic M1 receptor at 3.16 uM.

Data set [7] concerns MDCK. The data set can be described thus: Efflux ratio of permeability from […] of MDR1 transfected MDCK cells at 1 uM. As to conditions: dog. It is filed as ADME, cell-based, Canis lupus familiaris.
Data set [8] deals with Metabotropic glutamate receptor 5 (Homo sapiens) (UniProt P41594). Nature of the data set: Positive allosteric modulation of mGlu5 receptor at up to 10 uM.
Metabotropic glutamate receptor 5 (Homo sapiens), sequence (P41594 21-1212 limits assumed): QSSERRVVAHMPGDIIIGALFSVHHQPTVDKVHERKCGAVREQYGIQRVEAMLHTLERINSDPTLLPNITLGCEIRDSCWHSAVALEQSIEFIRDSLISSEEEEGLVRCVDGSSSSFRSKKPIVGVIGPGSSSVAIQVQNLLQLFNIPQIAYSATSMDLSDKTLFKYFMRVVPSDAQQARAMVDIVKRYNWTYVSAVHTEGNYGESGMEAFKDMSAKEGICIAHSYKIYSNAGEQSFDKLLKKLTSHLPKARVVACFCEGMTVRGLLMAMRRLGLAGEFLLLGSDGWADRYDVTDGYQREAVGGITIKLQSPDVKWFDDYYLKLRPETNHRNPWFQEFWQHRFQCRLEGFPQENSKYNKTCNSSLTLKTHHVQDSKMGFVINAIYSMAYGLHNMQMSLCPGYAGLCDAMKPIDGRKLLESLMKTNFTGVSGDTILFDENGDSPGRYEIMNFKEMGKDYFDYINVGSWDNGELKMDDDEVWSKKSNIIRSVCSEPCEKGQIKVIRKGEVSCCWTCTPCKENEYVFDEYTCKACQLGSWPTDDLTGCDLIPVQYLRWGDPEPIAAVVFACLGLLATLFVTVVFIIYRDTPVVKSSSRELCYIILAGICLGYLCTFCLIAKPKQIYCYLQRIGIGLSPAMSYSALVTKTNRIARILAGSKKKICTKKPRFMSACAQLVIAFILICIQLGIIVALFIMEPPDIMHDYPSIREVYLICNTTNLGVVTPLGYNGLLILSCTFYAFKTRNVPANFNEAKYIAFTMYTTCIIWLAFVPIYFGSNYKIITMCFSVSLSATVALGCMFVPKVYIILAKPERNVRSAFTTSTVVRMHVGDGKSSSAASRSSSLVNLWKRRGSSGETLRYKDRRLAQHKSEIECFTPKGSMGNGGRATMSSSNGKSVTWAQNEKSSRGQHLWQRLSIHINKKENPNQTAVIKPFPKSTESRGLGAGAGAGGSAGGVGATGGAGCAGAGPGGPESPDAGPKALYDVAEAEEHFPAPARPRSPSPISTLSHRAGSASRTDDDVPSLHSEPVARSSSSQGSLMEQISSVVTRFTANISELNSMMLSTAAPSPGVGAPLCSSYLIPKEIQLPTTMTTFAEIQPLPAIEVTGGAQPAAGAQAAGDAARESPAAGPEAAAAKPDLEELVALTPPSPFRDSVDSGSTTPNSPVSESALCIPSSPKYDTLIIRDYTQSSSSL
Data set [9] addresses T2, 5-hydroxytryptamine receptor 1A (Homo sapiens) (UniProt P08908).
T2 sequence (whole entry): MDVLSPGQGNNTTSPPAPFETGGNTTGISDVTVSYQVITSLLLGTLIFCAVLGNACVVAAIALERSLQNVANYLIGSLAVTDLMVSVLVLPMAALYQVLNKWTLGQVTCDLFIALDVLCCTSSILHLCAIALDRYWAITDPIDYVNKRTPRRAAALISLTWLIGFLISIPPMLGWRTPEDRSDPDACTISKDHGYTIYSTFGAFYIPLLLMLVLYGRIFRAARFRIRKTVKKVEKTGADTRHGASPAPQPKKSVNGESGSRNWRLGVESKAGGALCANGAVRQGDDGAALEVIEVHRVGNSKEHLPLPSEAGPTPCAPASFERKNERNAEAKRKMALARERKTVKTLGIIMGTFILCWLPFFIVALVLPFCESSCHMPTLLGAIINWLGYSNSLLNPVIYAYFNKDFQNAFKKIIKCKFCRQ
Nature of the data set: Binding affinity to 5HT1A receptor at 3.16 uM.

Data set [10] concerns the target D(2) dopamine receptor (Rattus norvegicus, UniProt P61169). The data set can be described thus: Displacement of [3H]spiperone from dopamine D2 receptor in rat corpus striatum by beta plate scintillation counting. It is filed as tissue-based. (In general: Displacement assays read how much labelled ligand stays bound in the presence of the test substance.)
Data set [11] is described as follows: Permeability from apical to basolateral side of MDR1 transfected MDCK cells at 1 uM. The format is ADME, cell-based, Canis lupus familiaris. The conditions noted are these: dog, read-out: permeability.
Data set [12] has as its target Metabotropic glutamate receptor 5 (Homo sapiens) (UniProt P41594). The data set can be described thus: Antagonist activity at mGlu5 receptor at up to 10 uM. It is filed as functional.
In data set [13] the target is T3, Alpha-2A adrenergic receptor (Homo sapiens) (UniProt P08913).
T3 sequence (whole entry): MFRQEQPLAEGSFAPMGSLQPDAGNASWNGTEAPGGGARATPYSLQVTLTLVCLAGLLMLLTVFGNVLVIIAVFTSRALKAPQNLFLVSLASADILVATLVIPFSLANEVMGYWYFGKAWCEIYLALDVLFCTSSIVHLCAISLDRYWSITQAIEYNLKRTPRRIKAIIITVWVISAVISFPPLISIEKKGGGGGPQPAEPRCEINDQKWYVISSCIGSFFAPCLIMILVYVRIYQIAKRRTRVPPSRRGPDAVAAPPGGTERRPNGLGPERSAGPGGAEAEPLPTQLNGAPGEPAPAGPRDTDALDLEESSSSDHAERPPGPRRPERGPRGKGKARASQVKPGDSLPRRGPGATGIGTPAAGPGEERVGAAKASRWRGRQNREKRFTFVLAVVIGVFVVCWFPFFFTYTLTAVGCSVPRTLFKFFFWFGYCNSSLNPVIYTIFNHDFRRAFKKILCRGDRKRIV
Nature of the data set: Binding affinity to adrenergic alpha2A receptor at 3.16 uM.

In data set [14] the target is 5-hydroxytryptamine receptor 2B (Homo sapiens) (UniProt P41595). Nature of the data set: Binding affinity to 5HT2B receptor at 3.16 uM.
5-hydroxytryptamine receptor 2B (Homo sapiens), sequence (P41595 whole entry): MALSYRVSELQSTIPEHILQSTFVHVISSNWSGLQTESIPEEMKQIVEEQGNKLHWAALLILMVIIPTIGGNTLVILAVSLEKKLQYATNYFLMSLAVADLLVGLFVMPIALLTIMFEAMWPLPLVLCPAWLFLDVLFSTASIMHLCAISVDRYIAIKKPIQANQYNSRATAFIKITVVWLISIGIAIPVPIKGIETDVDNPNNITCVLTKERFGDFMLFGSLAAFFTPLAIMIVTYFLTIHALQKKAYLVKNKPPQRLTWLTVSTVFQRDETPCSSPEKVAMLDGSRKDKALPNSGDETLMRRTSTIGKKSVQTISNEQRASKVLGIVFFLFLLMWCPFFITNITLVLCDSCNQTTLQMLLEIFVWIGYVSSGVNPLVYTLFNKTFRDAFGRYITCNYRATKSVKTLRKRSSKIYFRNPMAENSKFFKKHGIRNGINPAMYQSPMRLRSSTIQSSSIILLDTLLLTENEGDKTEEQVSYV
The target of data set [15] is Metabotropic glutamate receptor 1 (Homo sapiens) (UniProt Q13255). The data set can be described thus: Antagonist activity at mGlu1 receptor at up to 10 uM. The format is functional.
Data set [16] addresses Metabotropic glutamate receptor 2 (Rattus norvegicus, UniProt P31421). The data set can be described thus: Positive allosteric modulation of rat mGluR2 expressed in HEK293 cells co-expressing Galpha15 G protein assessed as increase in glutamate-induced intracellular calcium release by FLIPR assay. It is filed as functional, cell-based. A general note: Calcium assays in cells follow changes in intracellular calcium, usually with a dye or a luminescent sensor.

Data set [17] has as its target 5-hydroxytryptamine receptor 2A (Homo sapiens) (UniProt P28223). Nature of the data set: Binding affinity to 5HT2A receptor at 3.16 uM.

Metabotropic glutamate receptor 2, sequence (P31421 whole entry): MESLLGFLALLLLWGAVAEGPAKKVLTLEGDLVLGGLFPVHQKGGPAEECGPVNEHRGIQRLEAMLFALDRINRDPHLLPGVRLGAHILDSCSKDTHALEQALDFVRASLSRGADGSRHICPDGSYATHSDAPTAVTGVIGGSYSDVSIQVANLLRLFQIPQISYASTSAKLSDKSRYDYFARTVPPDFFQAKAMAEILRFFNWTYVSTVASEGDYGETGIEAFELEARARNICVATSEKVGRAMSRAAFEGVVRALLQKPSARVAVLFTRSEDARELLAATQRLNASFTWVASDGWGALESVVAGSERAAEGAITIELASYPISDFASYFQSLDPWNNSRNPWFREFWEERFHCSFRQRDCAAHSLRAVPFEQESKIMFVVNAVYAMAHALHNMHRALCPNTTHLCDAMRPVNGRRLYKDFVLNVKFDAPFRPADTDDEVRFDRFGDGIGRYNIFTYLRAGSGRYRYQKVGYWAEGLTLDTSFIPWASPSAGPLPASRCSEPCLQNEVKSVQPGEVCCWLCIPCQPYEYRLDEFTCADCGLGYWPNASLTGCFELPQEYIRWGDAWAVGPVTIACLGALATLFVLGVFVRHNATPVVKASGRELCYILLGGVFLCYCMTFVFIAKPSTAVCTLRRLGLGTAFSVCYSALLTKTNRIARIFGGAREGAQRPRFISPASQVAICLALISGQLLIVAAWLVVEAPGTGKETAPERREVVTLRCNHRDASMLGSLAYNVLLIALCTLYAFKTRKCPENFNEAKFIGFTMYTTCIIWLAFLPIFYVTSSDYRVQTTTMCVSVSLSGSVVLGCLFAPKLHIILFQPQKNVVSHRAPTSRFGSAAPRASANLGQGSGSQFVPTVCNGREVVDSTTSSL
D(2) dopamine receptor (Rattus norvegicus, UniProt P61169), sequence (P61169 whole entry): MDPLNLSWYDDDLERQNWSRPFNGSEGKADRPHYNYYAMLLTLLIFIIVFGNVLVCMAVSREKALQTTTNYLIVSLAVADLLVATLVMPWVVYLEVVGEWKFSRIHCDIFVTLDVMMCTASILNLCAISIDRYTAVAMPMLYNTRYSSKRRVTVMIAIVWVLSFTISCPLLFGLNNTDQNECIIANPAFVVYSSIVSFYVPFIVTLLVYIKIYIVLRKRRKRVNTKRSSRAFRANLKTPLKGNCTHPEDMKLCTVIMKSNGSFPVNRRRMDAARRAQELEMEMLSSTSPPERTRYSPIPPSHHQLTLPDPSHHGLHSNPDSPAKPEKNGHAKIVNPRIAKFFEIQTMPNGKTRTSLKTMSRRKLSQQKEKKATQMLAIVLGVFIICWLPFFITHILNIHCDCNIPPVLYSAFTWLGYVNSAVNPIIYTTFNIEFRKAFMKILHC

With `COc1ccccc1C1CCN(Cc2nc3ccccc3n2C)CC1`, the results for the 50% effective concentration (EC50) in data set [1] and in [16] were 0.951 µM and 0.087 µM, respectively. Besides, the result in data set [2], in data set [3], in data set [8], in [12] and in data set [15] was inactive. The inhibition at 3.16 µM in data set [4] was below 50%. Further, the inhibition in data set [5], in data set [6], in data set [9], in data set [13], in [14] and in data set [17] was below 50% in each case. The Ratio in data set [7] was 1.28. The Ki in [10] came to 0.426 µM. Also, the Papp A→B at 1 µM in data set [11] was found to be 25.8 ×10⁻⁶ cm/s.

The term EC50 denotes the concentration giving half of the maximal effect. Broadly, the inhibition is how much of the control response was suppressed. A lower inhibition goes with a response near the control. Broadly, the Ki is a dissociation constant, usually derived from enzyme kinetics or from competition with a known ligand. A low value points to a stronger hold on the target.
